{"source": "patent US10092606B2", "about": "“Synbiotic mixture” (Nestec S.A., priority 2006, dated 2018)", "molecular_target": "toxin A from C. difficile (Clostridioides difficile, UniProt P16154)", "sequence (P16154 whole entry, looked up)": "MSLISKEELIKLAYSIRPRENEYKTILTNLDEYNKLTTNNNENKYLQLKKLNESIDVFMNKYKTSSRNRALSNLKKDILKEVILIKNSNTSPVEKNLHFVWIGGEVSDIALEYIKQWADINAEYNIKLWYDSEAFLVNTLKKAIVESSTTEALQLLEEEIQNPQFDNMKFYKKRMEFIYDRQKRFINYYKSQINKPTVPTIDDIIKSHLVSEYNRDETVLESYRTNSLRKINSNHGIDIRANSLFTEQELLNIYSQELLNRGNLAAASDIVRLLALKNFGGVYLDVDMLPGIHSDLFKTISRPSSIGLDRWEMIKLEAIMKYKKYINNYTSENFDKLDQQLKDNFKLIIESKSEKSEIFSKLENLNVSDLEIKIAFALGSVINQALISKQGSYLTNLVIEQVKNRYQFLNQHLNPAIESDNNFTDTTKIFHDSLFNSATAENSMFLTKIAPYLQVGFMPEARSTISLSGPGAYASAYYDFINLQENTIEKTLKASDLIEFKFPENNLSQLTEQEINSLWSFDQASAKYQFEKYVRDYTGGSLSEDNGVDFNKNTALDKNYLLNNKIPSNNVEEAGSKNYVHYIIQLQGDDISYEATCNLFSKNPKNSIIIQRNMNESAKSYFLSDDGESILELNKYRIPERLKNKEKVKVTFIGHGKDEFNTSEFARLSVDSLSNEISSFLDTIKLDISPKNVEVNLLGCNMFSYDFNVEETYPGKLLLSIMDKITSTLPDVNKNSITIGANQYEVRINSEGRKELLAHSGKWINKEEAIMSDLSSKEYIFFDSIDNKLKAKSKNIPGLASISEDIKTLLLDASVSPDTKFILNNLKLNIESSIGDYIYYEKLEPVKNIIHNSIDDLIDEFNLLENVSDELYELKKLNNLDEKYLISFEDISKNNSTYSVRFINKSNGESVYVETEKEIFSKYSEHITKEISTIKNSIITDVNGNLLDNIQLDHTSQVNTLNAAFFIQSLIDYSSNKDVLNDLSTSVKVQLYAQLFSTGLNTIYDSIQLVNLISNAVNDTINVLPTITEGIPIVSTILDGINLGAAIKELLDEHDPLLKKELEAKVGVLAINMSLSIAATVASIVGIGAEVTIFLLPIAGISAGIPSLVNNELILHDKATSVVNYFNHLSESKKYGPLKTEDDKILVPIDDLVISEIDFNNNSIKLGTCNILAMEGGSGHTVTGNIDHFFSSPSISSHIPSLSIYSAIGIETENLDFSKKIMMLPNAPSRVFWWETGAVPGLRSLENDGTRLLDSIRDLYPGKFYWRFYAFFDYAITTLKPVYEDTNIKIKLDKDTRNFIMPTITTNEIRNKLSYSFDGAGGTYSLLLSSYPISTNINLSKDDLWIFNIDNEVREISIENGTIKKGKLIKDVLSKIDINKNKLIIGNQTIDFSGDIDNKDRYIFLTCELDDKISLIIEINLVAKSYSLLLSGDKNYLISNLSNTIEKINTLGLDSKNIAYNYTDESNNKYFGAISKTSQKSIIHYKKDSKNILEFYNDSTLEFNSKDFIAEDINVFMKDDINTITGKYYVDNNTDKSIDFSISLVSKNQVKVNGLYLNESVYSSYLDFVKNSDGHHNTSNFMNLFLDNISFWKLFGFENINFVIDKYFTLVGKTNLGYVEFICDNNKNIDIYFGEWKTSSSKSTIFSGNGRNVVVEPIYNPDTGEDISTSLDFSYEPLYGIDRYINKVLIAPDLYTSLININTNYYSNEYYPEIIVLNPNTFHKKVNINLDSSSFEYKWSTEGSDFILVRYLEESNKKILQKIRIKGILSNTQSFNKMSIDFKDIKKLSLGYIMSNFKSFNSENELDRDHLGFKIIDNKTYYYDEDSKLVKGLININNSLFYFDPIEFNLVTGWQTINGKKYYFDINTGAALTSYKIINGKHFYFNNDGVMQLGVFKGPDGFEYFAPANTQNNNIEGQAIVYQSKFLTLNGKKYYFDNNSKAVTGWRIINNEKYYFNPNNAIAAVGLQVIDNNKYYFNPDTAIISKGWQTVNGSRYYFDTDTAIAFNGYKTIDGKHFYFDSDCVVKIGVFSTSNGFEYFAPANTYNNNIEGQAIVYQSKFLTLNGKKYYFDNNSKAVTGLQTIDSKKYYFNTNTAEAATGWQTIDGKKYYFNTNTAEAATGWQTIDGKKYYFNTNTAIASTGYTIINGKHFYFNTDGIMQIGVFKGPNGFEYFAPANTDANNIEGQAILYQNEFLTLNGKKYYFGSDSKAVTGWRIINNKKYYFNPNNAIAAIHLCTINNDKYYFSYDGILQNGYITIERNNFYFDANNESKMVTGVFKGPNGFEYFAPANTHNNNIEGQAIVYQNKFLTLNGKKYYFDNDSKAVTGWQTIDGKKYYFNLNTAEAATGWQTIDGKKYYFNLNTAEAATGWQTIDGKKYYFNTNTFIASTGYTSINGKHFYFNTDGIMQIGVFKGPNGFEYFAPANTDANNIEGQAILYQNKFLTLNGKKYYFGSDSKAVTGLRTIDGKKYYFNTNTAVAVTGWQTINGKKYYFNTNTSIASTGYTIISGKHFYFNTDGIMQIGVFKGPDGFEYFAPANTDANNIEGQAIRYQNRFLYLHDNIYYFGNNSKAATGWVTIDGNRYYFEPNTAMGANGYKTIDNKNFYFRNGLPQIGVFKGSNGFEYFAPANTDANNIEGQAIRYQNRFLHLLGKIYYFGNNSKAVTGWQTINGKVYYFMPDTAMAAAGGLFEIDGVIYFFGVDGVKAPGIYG", "assay": "Protection of T84 monolayers against C. difficile toxin A (transepithelial electrical resistance)", "format": "cell-based, Clostridium difficile", "details": "T84 cells; prebiotic in combination with the same probiotic strains; fructooligosaccharides 20 g/l, galactooligosaccharides 20 g/l, sialyllactose 10 g/l; compared with preparations of the invention; FIG. 2"}
{"substance": "sialyllactose", "values": [{"measurement": "effect against C. difficile toxin A (TER, normalized protection score)", "value": "a comparable effect was not achieved"}]}
